{"source": "patent US20190374518A1", "about": "“TREATMENT OF MIGRAINE” (Allergan Pharmaceuticals International Limited, priority 2018, published 2019)", "key": {"[1]": {"test": "Study A: randomized, double-blind, placebo-controlled study, acute treatment of a single migraine attack", "type": "in vivo, human", "conditions": "for Absence of Most-Bothersome Migraine Associated Symptom at 2 hours after the initial dose: Odds Ratio (95% CI) / Pain Freedom at 2 hours after the initial dose: Odds Ratio (95% CI): mITT", "experimental": "(§1) Study A and Study B were multicenter, randomized, double-blind, placebo-controlled, parallel-group, studies designed to evaluate the efficacy, safety, and tolerability of three doses of ubrogepant (25 mg, 50 mg and 100 mg) compared to placebo for the acute treatment of a single migraine attack. In Study A, patients were randomized (1:1:1) to 1 of 3 treatment groups: placebo, ubrogepant 50 mg, or ubrogepant 100 mg. In Study B, patients were randomized (1:1:1) to 1 of 3 treatment groups: placebo, ubrogepant 25 mg, or ubrogepant 50 mg. Patients were stratified by their previous response to triptans (triptan responder, triptan insufficient responder, triptan naïve) and their current use of prophylactic concomitant medication for migraine (yes/no). To be randomized, eligible patients had to be 18 to 75 years of age (inclusive), have a history of migraine with or without aura for at least 1 year consistent with a diagnosis according to the International Classification of Headache Disorders criteria, 3rd edition, beta version, and had to have experienced between 2 to 8 migraine attacks with moderate to severe headache pain in each of the 3 months before Screening (Visit 1). Patients who had clinically significant hematologic, endocrine, cardiovascular, cerebrovascular, pulmonary, renal, hepatic, gastrointestinal, or neurologic disease were excluded from the study. Study patients randomized to a treatment group had up to 60 days to treat a single qualifying migraine attack of moderate or severe pain intensity at home. In Study A, a total of 1672 patients were randomized to double-blind treatment (ITT population), and 1436 patients took at least 1 dose of double-blind IP (safety population). A total of 1327 treated patients recorded a baseline migraine headache severity measurement and at least 1 postdose migraine headache severity or migraine-associated symptom measurement within 2 hours after dosing (mITT population). In Study B, a total of 1,686 patients were randomized to double-blind treatment (ITT population), and 1,465 patients took at least 1 dose of double-blind IP (safety population). A total of 1355 treated patients recorded a baseline migraine headache severity measurement and at least 1 postdose migraine headache severity or migraine-associated symptom measurement within 2 hours after dosing (mITT population). The coprimary efficacy endpoints for the United States were pain freedom (PF) at 2 hours after the initial dose, defined as a reduction in headache severity from moderate/severe at baseline to no pain, at 2 hours after the initial dose and absence of the most bothersome migraine-associated symptom at 2 hours after the initial dose. The most bothersome migraine-associated symptom was identified at baseline for each patient."}, "[2]": {"test": "Study B: randomized, double-blind, placebo-controlled study, acute treatment of a single migraine attack", "type": "in vivo, human", "conditions": "for Absence of Most-Bothersome Migraine Associated Symptom at 2 hours after the initial dose: Odds Ratio (95% CI) / Pain Freedom at 2 hours after the initial dose: Odds Ratio (95% CI): mITT", "experimental": "as §1"}, "[3]": {"conditions": "50 mg vs placebo, Triptan Insufficient Responder"}, "[4]": {"conditions": "50 mg vs placebo, Triptan Naïve"}, "[5]": {"conditions": "50 mg vs placebo, Triptan Responder"}, "[6]": {"conditions": "100 mg vs placebo, Triptan Insufficient Responder"}, "[7]": {"conditions": "100 mg vs placebo, Triptan Naïve"}, "[8]": {"conditions": "100 mg vs placebo, Triptan Responder"}, "[9]": {"conditions": "100 mg, Triptan Insufficient Responder, N1=126, mITT"}, "[10]": {"conditions": "100 mg, Triptan Naïve, N1=149, mITT"}, "[11]": {"conditions": "100 mg, Triptan Responder, N1=173, mITT"}, "[12]": {"conditions": "25 mg vs placebo, Triptan Insufficient Responder"}, "[13]": {"conditions": "25 mg vs placebo, Triptan Responder"}, "[14]": {"conditions": "25 mg, Triptan Insufficient Responder, N1=100, mITT"}, "[15]": {"conditions": "50 mg, Triptan Insufficient Responder, N1=110, mITT"}, "[16]": {"conditions": "50 mg, Triptan Responder, N1=160, mITT"}}}
{"smiles": "C[C@@H]1[C@H](c2ccccc2)C[C@H](NC(=O)c2cnc3c(c2)C[C@@]2(C3)C(=O)Nc3ncccc32)C(=O)N1CC(F)(F)F", "note": "[Ubrogepant, ubrogepant]", "values": [{"measurement": "Absence of Most-Bothersome Migraine Associated Symptom at 2 hours after the initial dose: Odds Ratio (95% CI)", "setting": "[1]; [3]", "value": 1.80}, {"measurement": "Pain Freedom at 2 hours after the initial dose: Odds Ratio (95% CI)", "setting": "[1]; [3]", "value": 2.41}, {"measurement": "Absence of Most-Bothersome Migraine Associated Symptom at 2 hours after the initial dose: Odds Ratio (95% CI)", "setting": "[1]; [4]", "value": 1.48}, {"measurement": "Pain Freedom at 2 hours after the initial dose: Odds Ratio (95% CI)", "setting": "[1]; [4]", "value": 1.60}, {"measurement": "Absence of Most-Bothersome Migraine Associated Symptom at 2 hours after the initial dose: Odds Ratio (95% CI)", "setting": "[1]; [5]", "value": 1.85}, {"measurement": "Pain Freedom at 2 hours after the initial dose: Odds Ratio (95% CI)", "setting": "[1]; [5]", "value": 1.86}, {"measurement": "Absence of Most-Bothersome Migraine Associated Symptom at 2 hours after the initial dose: Responder rate (in parentheses)", "setting": "[1]; 50 mg, Triptan Insufficient Responder, N1=116, mITT", "value": "(33.6)"}, {"measurement": "Pain Freedom at 2 hours after the initial dose: Responder rate (in parentheses)", "setting": "[1]; 50 mg, Triptan Insufficient Responder, N1=118, mITT", "value": "(13.6)"}, {"measurement": "Absence of Most-Bothersome Migraine Associated Symptom at 2 hours after the initial dose: Responder rate (in parentheses)", "setting": "[1]; 50 mg, Triptan Naïve, N1=132, mITT", "value": "(42.4)"}, {"measurement": "Pain Freedom at 2 hours after the initial dose: Responder rate (in parentheses)", "setting": "[1]; 50 mg, Triptan Naïve, N1=133, mITT", "value": "(24.8)"}, {"measurement": "Pain Freedom at 2 hours after the initial dose: Responder rate (in parentheses)", "setting": "[1]; 50 mg, Triptan Responder, N1=171, mITT", "value": "(18.7)"}, {"measurement": "Absence of Most-Bothersome Migraine Associated Symptom at 2 hours after the initial dose: Responder rate (in parentheses)", "setting": "[1]; 50 mg, Triptan Responder, N1=172, mITT", "value": "(39.0)"}, {"measurement": "Absence of Most-Bothersome Migraine Associated Symptom at 2 hours after the initial dose: Odds Ratio (95% CI)", "setting": "[1]; [6]", "value": 1.50}, {"measurement": "Pain Freedom at 2 hours after the initial dose: Odds Ratio (95% CI)", "setting": "[1]; [6]", "value": 2.49}, {"measurement": "Absence of Most-Bothersome Migraine Associated Symptom at 2 hours after the initial dose: Odds Ratio (95% CI)", "setting": "[1]; [7]", "value": 1.22}, {"measurement": "Pain Freedom at 2 hours after the initial dose: Odds Ratio (95% CI)", "setting": "[1]; [7]", "value": 1.26}, {"measurement": "Absence of Most-Bothersome Migraine Associated Symptom at 2 hours after the initial dose: Odds Ratio (95% CI)", "setting": "[1]; [8]", "value": 2.18}, {"measurement": "Pain Freedom at 2 hours after the initial dose: Odds Ratio (95% CI)", "setting": "[1]; [8]", "value": 2.89}, {"measurement": "Absence of Most-Bothersome Migraine Associated Symptom at 2 hours after the initial dose: Responder rate (in parentheses)", "setting": "[1]; [9]", "value": "(30.2)"}, {"measurement": "Pain Freedom at 2 hours after the initial dose: Responder rate (in parentheses)", "setting": "[1]; [9]", "value": "(14.3)"}, {"measurement": "Absence of Most-Bothersome Migraine Associated Symptom at 2 hours after the initial dose: Responder rate (in parentheses)", "setting": "[1]; [10]", "value": "(37.6)"}, {"measurement": "Pain Freedom at 2 hours after the initial dose: Responder rate (in parentheses)", "setting": "[1]; [10]", "value": "(20.8)"}, {"measurement": "Absence of Most-Bothersome Migraine Associated Symptom at 2 hours after the initial dose: Responder rate (in parentheses)", "setting": "[1]; [11]", "value": "(43.4)"}, {"measurement": "Pain Freedom at 2 hours after the initial dose: Responder rate (in parentheses)", "setting": "[1]; [11]", "value": "(26.6)"}, {"measurement": "Absence of Most-Bothersome Migraine Associated Symptom at 2 hours after the initial dose: Odds Ratio (95% CI)", "setting": "[2]; [12]", "value": 1.65}, {"measurement": "Pain Freedom at 2 hours after the initial dose: Odds Ratio (95% CI)", "setting": "[2]; [12]", "value": 1.81}, {"measurement": "Absence of Most-Bothersome Migraine Associated Symptom at 2 hours after the initial dose: Odds Ratio (95% CI)", "setting": "[2]; 25 mg vs placebo, Triptan Naive", "value": 1.32}, {"measurement": "Pain Freedom at 2 hours after the initial dose: Odds Ratio (95% CI)", "setting": "[2]; 25 mg vs placebo, Triptan Naïve", "value": 1.50}, {"measurement": "Absence of Most-Bothersome Migraine Associated Symptom at 2 hours after the initial dose: Odds Ratio (95% CI)", "setting": "[2]; [13]", "value": 1.26}, {"measurement": "Pain Freedom at 2 hours after the initial dose: Odds Ratio (95% CI)", "setting": "[2]; [13]", "value": 1.52}, {"measurement": "Absence of Most-Bothersome Migraine Associated Symptom at 2 hours after the initial dose: Responder rate (in parentheses)", "setting": "[2]; [14]", "value": "(37.0)"}, {"measurement": "Pain Freedom at 2 hours after the initial dose: Responder rate (in parentheses)", "setting": "[2]; [14]", "value": "(18.0)"}, {"measurement": "Absence of Most-Bothersome Migraine Associated Symptom at 2 hours after the initial dose: Responder rate (in parentheses)", "setting": "[2]; 25 mg, Triptan Naive, N1=184, mITT", "value": "(34.2)"}, {"measurement": "Pain Freedom at 2 hours after the initial dose: Responder rate (in parentheses)", "setting": "[2]; 25 mg, Triptan Naïve, N1=184, mITT", "value": "(25.5)"}, {"measurement": "Absence of Most-Bothersome Migraine Associated Symptom at 2 hours after the initial dose: Responder rate (in parentheses)", "setting": "[2]; 25 mg, Triptan Responder, N1=150, mITT", "value": "(32.0)"}, {"measurement": "Pain Freedom at 2 hours after the initial dose: Responder rate (in parentheses)", "setting": "[2]; 25 mg, Triptan Responder, N1=151, mITT", "value": "(16.6)"}, {"measurement": "Absence of Most-Bothersome Migraine Associated Symptom at 2 hours after the initial dose: Odds Ratio (95% CI)", "setting": "[2]; [3]", "value": 1.72}, {"measurement": "Pain Freedom at 2 hours after the initial dose: Odds Ratio (95% CI)", "setting": "[2]; [3]", "value": 1.97}, {"measurement": "Absence of Most-Bothersome Migraine Associated Symptom at 2 hours after the initial dose: Odds Ratio (95% CI)", "setting": "[2]; 50 mg vs placebo, Triptan Naive", "value": 1.54}, {"measurement": "Pain Freedom at 2 hours after the initial dose: Odds Ratio (95% CI)", "setting": "[2]; [4]", "value": 1.22}, {"measurement": "Absence of Most-Bothersome Migraine Associated Symptom at 2 hours after the initial dose: Odds Ratio (95% CI)", "setting": "[2]; [5]", "value": 1.76}, {"measurement": "Pain Freedom at 2 hours after the initial dose: Odds Ratio (95% CI)", "setting": "[2]; [5]", "value": 2.19}, {"measurement": "Absence of Most-Bothersome Migraine Associated Symptom at 2 hours after the initial dose: Responder rate (in parentheses)", "setting": "[2]; [15]", "value": "(38.2)"}, {"measurement": "Pain Freedom at 2 hours after the initial dose: Responder rate (in parentheses)", "setting": "[2]; [15]", "value": "(19.1)"}, {"measurement": "Absence of Most-Bothersome Migraine Associated Symptom at 2 hours after the initial dose: Responder rate (in parentheses)", "setting": "[2]; 50 mg, Triptan Naive, N1=193, mITT", "value": "(39.4)"}, {"measurement": "Pain Freedom at 2 hours after the initial dose: Responder rate (in parentheses)", "setting": "[2]; 50 mg, Triptan Naïve, N1=194, mITT", "value": "(23.2)"}, {"measurement": "Absence of Most-Bothersome Migraine Associated Symptom at 2 hours after the initial dose: Responder rate (in parentheses)", "setting": "[2]; [16]", "value": "(38.8)"}, {"measurement": "Pain Freedom at 2 hours after the initial dose: Responder rate (in parentheses)", "setting": "[2]; [16]", "value": "(21.9)"}]}
